This is an account of results in paper PMC9942192 (ACS Synthetic Biology, 2023).

In this test the target is T1, AtSWEET4 (Arabidopsis thaliana, UniProt Q944M5).
T1 sequence (Q944M5 1-251): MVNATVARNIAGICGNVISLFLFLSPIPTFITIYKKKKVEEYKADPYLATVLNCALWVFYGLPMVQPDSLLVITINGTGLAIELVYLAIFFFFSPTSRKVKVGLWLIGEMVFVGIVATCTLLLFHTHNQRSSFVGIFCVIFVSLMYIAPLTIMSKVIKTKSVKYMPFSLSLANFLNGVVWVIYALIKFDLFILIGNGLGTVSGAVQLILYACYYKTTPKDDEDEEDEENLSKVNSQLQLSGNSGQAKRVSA
As to the kind of experiment: […]-radiolabeled uptake in yeast EBY4000. The class given is cell-based. Particulars: labelled compound; positive control; n = 3.

`OCC1(O)OC[C@@H](O)[C@@H](O)[C@@H]1O` (stereo partly drawn) [D-fructose]: the uptake entry was “D-mannose and D-fructose transporter AtSWEET4 serves as a positive control”.
With `OC[C@H]1OC(O)[C@@H](O)[C@@H](O)[C@@H]1O` (stereo partly drawn) [D-mannose], the uptake entry was “D-mannose and D-fructose transporter AtSWEET4 serves as a positive control”.
